In brackets after ≈: the same amount, converted by molar mass. Where two headings read alike, the source gives them in different places.
Legend:
[1] = system: Staphylococcus aureus S-127; assay: In vitro antimicrobial activity against aerobes, broth microdilution (NCCLS 1985); type: cell-based; settings: S127, read after 16-18 hours
Protocol: For aerobic microorganisms, a cation supplemented Mueller Hinton Broth (BBL) was used whereas the Anaerobe Broth MIC (Difco) was used for anaerobic microorganisms. An agar Dilution method was employed for certain aerobic microorganisms using Mueller Hinton II Agar (BBL) and a Cathra multipoint inoculating device which delivered 10^4 cfu/spot of the inoculum on the agar surface. MICs were read after 16-18 hours and 48 hours of incubation in case of microbes growing aerobically and anaerobically respectively.

[2] = system: Enterobacter cloacae S-130; assay: Microbroth dilution (MHB) method, NCCLS M7-A2; type: cell-based; settings: 35 °C/18 hr
Protocol: (§1) The test organisms were obtained from ATCC and clinical laboratories. The 96-well microtitre plates containing […] of serially diluted test compounds in Mueller Hinton Broth (MHB) (conc. range 64-0.03 µg/ml) were inoculated with […] of bacterial suspension in MHB so that an inoculum size of 5 x 10^5 cfu/ml was achieved.
(§2) EC. (S- 63): Eschericia coli Ecl. (S- 130): Enterobacter cloacae Pa. (S- 67): Pseudomonas aeruginosa Kp. (S- 80): Klebsiella pneumoniae Pr.
(§3) Microbroth Dilution (MHB) method; Inoculum, 5 x 10^5 cfu/ml; Incubation 35 °C/18 hr

Eschericia coli S-63 = assay: Microbroth dilution (MHB) method, NCCLS M7-A2; type: cell-based; settings: Ec S-63, inoculum 5 x 10^5 cfu/ml, 35 °C/18 hr
Protocol: as §1, §2, §3

[3] = system: Klebsiella pneumoniae S-80; assay: Microbroth dilution (MHB) method, NCCLS M7-A2; type: cell-based; settings: Kp S-80, MHB, inoculum 5 x 10^5 cfu/ml, 35 °C/18 hr
Protocol: as §1, §2, §3

[4] = system: Providencia rettgeri S-121; assay: Microbroth dilution (MHB) method, NCCLS M7-A2; type: cell-based; settings: 35 °C/18 hr
Protocol: as §1, §2, §3

[5] = system: Pseudomonas aeruginosa S-67; assay: Microbroth dilution (MHB) method, NCCLS M7-A2; type: cell-based; settings: Pa S-67, MHB, inoculum 5 x 10^5 cfu/ml, 35 °C/18 hr
Protocol: as §1, §2, §3

[6] = system: Staphylococcus aureus S-127; assay: Microbroth dilution (MHB) method, NCCLS M7-A2; type: cell-based; settings: 35 °C/18 hr
Protocol: as §1, §2, §3

Sa 127M = assay: Microbroth dilution (MHB) method, NCCLS M7-A2; type: cell-based, Staphylococcus aureus; settings: inoculum 5 x 10^5 cfu/ml, 35 °C/18 hr
Protocol: as §1, §2, §3

[7] = Enterobacter cloacae, S130, Ecl S-130, inoculum 5 x 10^5 cfu/ml, read-out: MIC
[8] = Klebsiella pneumoniae, S80, read-out: MIC
[9] = Providencia rettgeri, S121, Pr S-121, inoculum 5 x 10^5 cfu/ml, read-out: MIC
[10] = Pseudomonas aeruginosa, S67, read-out: MIC
[11] = Staphylococcus aureus, S127, Sa S-127, inoculum 5 x 10^5 cfu/ml, read-out: MIC
[12] = Staphylococcus aureus, read-out: MIC
[13] = Ecl S-130, inoculum 5 x 10^5 cfu/ml
[14] = Pr S-121, inoculum 5 x 10^5 cfu/ml
[15] = Sa S-127, inoculum 5 x 10^5 cfu/ml

| Molecule | MIC [1] [µg/mL] | MIC [2, 7] [µg/mL] | MIC (Eschericia coli S-63; read-out: MIC) [µg/mL] | MIC [3, 8] [µg/mL] | MIC [4, 9] [µg/mL] | MIC [5, 10] [µg/mL] | MIC [6, 11] [µg/mL] | MIC (Sa 127M; [12]) [µg/mL] | MIC [2, 13] | MIC (Eschericia coli S-63) | MIC [3] | MIC [4, 14] | MIC [5] [µg/mL] | MIC [6, 15] | MIC (Sa 127M) |
| --- | --- | --- | --- | --- | --- | --- | --- | --- | --- | --- | --- | --- | --- | --- | --- |
| CCOC(=O)c1cn(C2CC2)c2nc(N3C[C@@H](N)[C@@H](n4ccnn4)C3)c(F)cc2c1=O (relative stereo) [Example 6, Ethyl 7-[cis-3-amino-4-(1,2,3-triazol-1-yl)pyrrolidin-1-yl] -1-cyclopropyl-6-fluoro-1,4-dihydro-4-oxo-1,8-naphthyridine-3-carboxylate] | ≤ 0.03 | – | – | – | – | – | – | – | – | – | – | – | – | – | – |
| N[C@@H]1CN(c2c(F)cc3c(=O)c(C(=O)O)cn(C4CC4)c3c2F)C[C@@H]1n1ccnn1 (relative stereo) [Example 17, 7-[cis-3-Amino-4-(1,2,3-triazol-1-yl)-pyrrolidin-1-yl]-1-cyclopropyl-6,8-difluoro-1,4-dihydro-4-oxo-quinoline-3-carboxylic acid] | 1 (≈ 2.4 µM) | – | – | – | – | – | – | – | – | – | – | – | – | – | – |
| COc1c(N2CC[C@H](n3ccnn3)C2)c(F)cc2c(=O)c(C(=O)O)cn(C3CC3)c12 [Example 31, 1-Cyclopropyl-6-fluoro-7-[3S-(1,2,3-triazol-1-yl)pyrrolidin-1-yl]-8-methoxy-1,4-dihydro-4-oxo-quinoline-3-carboxylic acid] | – | 0.5 (≈ 1.21 µM) | 0.12 (≈ 0.29 µM) | 0.25 (≈ 0.605 µM) | 0.5 (≈ 1.21 µM) | 2 (≈ 4.84 µM) | ≤ 0.015 | ≤ 0.015 | – | – | – | – | – | – | – |
| COc1c(N2CCC(n3ccnn3)C2)c(F)cc2c(=O)c(C(=O)O)cn(C3CC3)c12 (stereo not shown) [Example 32, 1-Cyclopropyl-6-fluoro-7-[3-(1,2,3-triazol-1-yl)pyrrolidin-1-yl]-8-methoxy-1,4-dihydro-4-oxo-quinoline-3-carboxylic acid] | – | 0.5 (≈ 1.21 µM) | 0.12 (≈ 0.29 µM) | 0.25 (≈ 0.605 µM) | 0.12 (≈ 0.29 µM) | 4 (≈ 9.68 µM) | ≤ 0.03 | ≤ 0.03 | – | – | – | – | – | – | – |
| COc1c(N2CCC(n3cc(C)nn3)C2)c(F)cc2c(=O)c(C(=O)O)cn(C3CC3)c12 (stereo not shown) [Example 33] | – | 1 (≈ 2.34 µM) | 0.12 (≈ 0.281 µM) | 1 (≈ 2.34 µM) | 2 (≈ 4.68 µM) | 8 (≈ 18.7 µM) | ≤ 0.015 | ≤ 0.015 | – | – | – | – | – | – | – |
| Nc1cn(C2CCN(c3c(F)cc4c(=O)c(C(=O)O)cn(C5CC5)c4c3F)C2)nn1 (stereo not shown) [Example 42, 1-Cyclopropyl-6,8-difluoro-7-(3-(4-amino-1,2,3-triazol-1-yl)-pyrrolidin-1-yl)-1,4-dihydro-4-oxo-quinoline-3-carboxylic acid] | – | 1 (≈ 2.4 µM) | 0.5 (≈ 1.2 µM) | 1 (≈ 2.4 µM) | 1 (≈ 2.4 µM) | 4 (≈ 9.61 µM) | 0.25 (≈ 0.6 µM) | 1 (≈ 2.4 µM) | – | – | – | – | – | – | – |
| O=C(O)c1cn(C2CC2)c2c(F)c(N3CCC(n4nncc4C(=O)O)C3)c(F)cc2c1=O (stereo not shown) [Example 43, 1-Cyclopropyl-6,8-difluoro-7-(3-(5-carboxy-1,2,3-triazol-1-yl)-pyrrolidin-1-yl)-1,4-dihydro-4-oxo-quinoline-3-carboxylic acid] | – | 32 (≈ 71.8 µM) | 16 (≈ 35.9 µM) | 32 (≈ 71.8 µM) | 32 (≈ 71.8 µM) | > 32 | 8 (≈ 18 µM) | 8 (≈ 18 µM) | – | – | – | – | – | – | – |
| O=C(O)c1cn(C2CC2)c2c(F)c(N3CCC(n4cc(-c5ccccc5)nn4)C3)c(F)cc2c1=O (stereo not shown) [Example 46, 1-cyclopropyl-6,8-difluoro-7-[3-(4-phenyl-1,2,3-triazol-1-yl)-pyrrolidin-1-yl]-1,4-dihydro-4-oxo-quinoline-3-carboxylic acid] | – | 1 (≈ 2.09 µM) | 0.25 (≈ 0.524 µM) | 1 (≈ 2.09 µM) | 0.015 (≈ 0.0314 µM) | 32 (≈ 67 µM) | 0.015 (≈ 0.0314 µM) | 0.015 (≈ 0.0314 µM) | – | – | – | – | – | – | – |
| Nc1c(F)c(N2CCC(n3cc(-c4ccccc4)nn3)C2)c(F)c2c1c(=O)c(C(=O)O)cn2C1CC1 (stereo not shown) [Example 47, 5-amino-1-cyclopropyl-6,8-difluoro-7-[3-(4-phenyl-1,2,3-triazol-1-yl)-pyrrolidin-1-yl]-1,4-dihydro-4-oxo-quinoline-3-carboxylic acid] | – | 16 (≈ 32.5 µM) | 0.25 (≈ 0.508 µM) | 0.5 (≈ 1.02 µM) | 0.015 (≈ 0.0305 µM) | > 32 | 0.015 (≈ 0.0305 µM) | 0.015 (≈ 0.0305 µM) | – | – | – | – | – | – | – |
| Cc1c(F)c(N2CCC(n3cc(-c4ccccc4)nn3)C2)c(F)c2c1c(=O)c(C(=O)O)cn2C1CC1 (stereo not shown) [Example 48, 1-cyclopropyl-6,8-difluoro-5-methyl-7-[3(4-phenyl-1,2,3-triazol-1-yl)-pyrrolidin-1-yl]-1,4-dihydro-4-oxo-quinoline-3-carboxylic acid] | – | 4 (≈ 8.14 µM) | 1 (≈ 2.03 µM) | 4 (≈ 8.14 µM) | 0.015 (≈ 0.0305 µM) | 16 (≈ 32.6 µM) | 0.015 (≈ 0.0305 µM) | 0.015 (≈ 0.0305 µM) | – | – | – | – | – | – | – |
| O=C(O)c1cn(C2CC2)c2c(F)c(N3CCC(n4ccnn4)C3)c(F)c(F)c2c1=O (stereo not shown) [Example 49, 1-cyclopropyl-5,6,8-trifluoro-7-[3-(1,2,3-triazol-1-yl)-pyrrolidin-1-yl]-1,4-dihydro-4-oxo-quinoline-3-carboxylic acid] | – | 0.5 (≈ 1.19 µM) | 0.5 (≈ 1.19 µM) | 0.5 (≈ 1.19 µM) | 0.12 (≈ 0.286 µM) | 8 (≈ 19.1 µM) | 0.25 (≈ 0.596 µM) | 0.25 (≈ 0.596 µM) | – | – | – | – | – | – | – |
| O=C(O)c1cn(C2CC2)c2c(F)c(N3CCC(n4ccnn4)C3)c(F)c(O)c2c1=O (stereo not shown) [Example 50, 1-Cyclopropyl-5-hydroxy-6,8-difluoro-7-[-3-(1,2,3-triazol-1-yl)-pyrrolidin-1-yl]-1,4-dihydro-4-oxo-quinoline-3-carboxylic acid] | – | 2 (≈ 4.79 µM) | 1 (≈ 2.4 µM) | 1 (≈ 2.4 µM) | 0.06 (≈ 0.144 µM) | 16 (≈ 38.3 µM) | 0.25 (≈ 0.599 µM) | 0.25 (≈ 0.599 µM) | – | – | – | – | – | – | – |
| CCn1cc(C(=O)O)c(=O)c2cc(F)c(N3CCNCC3)cc21 [MFLX, Norfloxacin, reference compound] | – | 0.12 (≈ 0.376 µM) | 0.06 (≈ 0.188 µM) | 0.12 (≈ 0.376 µM) | 1 (≈ 3.13 µM) | 1 (≈ 3.13 µM) | 1 (≈ 3.13 µM) | 16 (≈ 50.1 µM) | – | – | – | – | – | – | – |
| N,N,N-Trimethyl-N-(2-hydroxyethyl) ammonium 1- cyclopropyl-6,8-difluoro-7-[3-(4-methyl-1,2,3-triazol-1-yl)pyrrolidin-1-yl]-1,4-dihydro-4-oxo-quinoline-3-carboxylate [Example 35] | – | – | – | – | – | – | – | – | .5 µg/mL | .25 µg/mL | .25 µg/mL | .25 µg/mL | 4 | ≤.015 µg/mL | .03 µg/mL |
| N,N,N-Trimethyl-N-(2-hydroxyethyl)ammonium-1-cyclopropyl-6,8-difluoro-7-[3-(1,2,4-triazol-1-yl)pyrrolidin-1-yl]-1,4-dihydro-4-oxo-quinoline-3-carboxylate [Example 37] | – | – | – | – | – | – | – | – | 2 µg/mL | .5 µg/mL | 1 µg/mL | 1 µg/mL | 8 | .06 µg/mL | .25 µg/mL |
| Norfloxacin - choline salt [MFLX-, reference compound] | – | – | – | – | – | – | – | – | .25 µg/mL | .06 µg/mL | .25 µg/mL | .12 µg/mL | 1 | 2 µg/mL | 16 µg/mL |

Reference: EP0561850B1, “7-SUBSTITUTED-6-FLUORO-1,4-DIHYDRO-4-OXO-QUINOLINE-3-CARBOXYLIC ACID COMPOUNDS USEFUL AS ANTIBACTERIAL AGENTS” (priority 1990, dated 1992)
